Experimental data as given in patent publication US10072009B2, “N-substituted beta-carbolinium compounds as potent P-glycoprotein inducers” (Council of Scientific and Industrial Research, priority 2014, dated 2018).
Where two headings read alike, the source gives them in different places.

Assays:
P-glycoprotein = test: P-glycoprotein-induction assay (rhodamine123 cell exclusion method) in LS-180 cells; conditions: for % Rh123 accumulation in LS-180 cells after 48 h: control = 100; for EC50: read-out: Pgp induction EC50 value, LS180 cells treated 48 h, Rh123 fluorescence vs concentration
Method: P-glycoprotein-induction assay. All synthesized compounds were screened for their ability to induce P-glycoprotein by using rhodamine123 (Rh123) cell exclusion method. In this method, the P-glycoprotein function was evaluated in terms of rhodamine 123 (Rh123) accumulation and efflux. Briefly, the protocol used is as follows: Colorectal LS180 cells Colorectal LS-180 cells [obtained from ECACC (European Collection of Cell Cultures) catalogue number: 87021202; passage number 52] were seeded at a density of 2×10^4 per well of 96 well plate and were allowed to grow for next 24 h. Cells were further incubated with the test compounds, and were diluted to a final concentration of 100 nM and rifampicin (standard) to a final concentration of 10 μM in complete media for 48 h. The final concentration of DMSO was kept at 0.1%. Drugs were removed and cells were incubated with HANKS buffer for 40 minutes before further incubation with HANKS buffer (containing 10 μM of Rh123 as a P-glycoprotein substrate) for 90 minutes. At the end of Rh123 treatment cells were washed four times with cold PBS followed by cell lysis for 1 h by using 200 μl of lysis buffer (0.1% Triton X-100 and 0.2 N NaOH). A total of 100 μl of lysate was used for reading fluorescence of Rh123 at 485 nm/529 nm Samples were normalized by dividing fluorescence of each sample with total protein present in the lysate. The Pgp-induction activity was measured in terms of the % intracellular accumulation of rhodamine 123/total protein inside LS180 cells. The decrease in the % intracellular accumulation (compared to control) of Rh123 indicates induction of P-glycoprotein as shown in Table 1. Rifampicin (10 μM) was used as a reference P-glycoprotein inducer. Statistical comparisons were made between control vs compounds by using Bonferroni test. The p value <0.5 was considered to be significant.
The decrease in % intracellular accumulation (compared to control) of Rh123 indicates induction of Pgp. Rifampicin (10 μM) was used as a reference Pgp inducer.
EC50 determination in p-glycoprotein-induction assay. […] For EC50 determination, different concentrations of compound were used to treat LS180 cells for 48 h. EC50 was determined by plotting fluoroscence of Rh123 against concentration of compound.

[1] = system: mouse leukemia cells L-1210; conditions: read-out: ED50, suppression of proliferation of L-1210 cells; cited from earlier work
[2] = Thermodynamic equilibrium solubility; type: physicochemical; conditions: for solubility: 25 °C, thermodynamic from solid
Method: Determination of thermodynamic equilibrium solubility. The compounds were first dissolved in methanol to prepare stock solutions (100 and 1000 μg/mL) Different concentrations of stock solutions were pipetted into the 96-well plates and the solvent was evaporated to ensure that solid drug was present in the beginning of the experiment. […] The plates were kept overnight for equilibration of drug in medium. Later, the plates were centrifuged at 3000 rpm for 15 min (Jouan centrifuge BR4i). Supernatant (50 μl) was pipetted into UV 96-well plates (Corning® 96 Well Clear Flat Bottom UV-Transparent Microplate) for analyses with plate reader (SpectraMax Plus384) at λmax of 350 nm. The analyses were performed in triplicate for each compound. The solubility curve of concentration (μg/mL) vs absorbance was plotted to find out saturation point and the corresponding concentration was noted. The solubility of fascaplysin (1) and compounds 6 and 11 was determined.

[3] = target: acetylcholinesterase (AChE); conditions: read-out: AChE inhibition IC50; cited from earlier work
[4] = compounds at 5 μM (table footnote), decrease indicates Pgp induction

6-chloro-fascaplysin [Compound 5]
% Rh123 accumulation in LS-180 cells after 48 h (P-glycoprotein; [4]): 59.2 ± 6.7 %

O=C1c2ccccc2-[n+]2ccc3c([nH]c4ccccc43)c21.[Cl-] [Compound 1, Fascaplysin]
EC50 [1]: 200 nM
EC50 (P-glycoprotein): 2.8 nM
solubility ([2]; aqueous buffer, phosphate buffer saline, read-out: Solubility in PBS): > 1500 µg/mL
solubility ([2]; simulated gastric fluid, simulated gastric fluid, read-out: Solubility in SGF): > 1500 µg/mL
solubility ([2]; simulated intestinal fluid, read-out: Solubility in SIF): > 1500 µg/mL
solubility ([2]; water, water, 25±1° C., thermodynamic equilibrium, read-out: Solubility in Water): > 800 µg/mL
Solubility in Water ([2]; water, 25±1° C., thermodynamic equilibrium): >1500 µg/mL
IC50 [3]: 1490 nM

O=C1c2ccc(Cl)cc2-[n+]2ccc3c([nH]c4ccccc43)c21 [Compound 2, 4-chloro-fascaplysin]
% Rh123 accumulation in LS-180 cells after 48 h (P-glycoprotein; [4]): 57.1 ± 9.2 %

O=C1c2cc(F)c(Cl)cc2-[n+]2ccc3c([nH]c4ccccc43)c21 [Compound 3, 4-chloro-5-fluoro-fascaplysin]
% Rh123 accumulation in LS-180 cells after 48 h (P-glycoprotein; [4]): 55.5 ± 6.9 %

O=C1c2ccc(Cl)c(Cl)c2-[n+]2ccc3c([nH]c4ccccc43)c21 [Compound 4, 3,4-dichloro-fascaplysin]
% Rh123 accumulation in LS-180 cells after 48 h (P-glycoprotein; [4]): 57.8 ± 8.3 %

O=C1c2cc(F)c(F)cc2-[n+]2ccc3c([nH]c4ccccc43)c21 [Compound 6, 4,5-difluoro-fascaplysin]
% Rh123 accumulation in LS-180 cells after 48 h (P-glycoprotein; [4]): 49.6 ± 1.2 %
EC50 (P-glycoprotein): 2 nM
Solubility in Water [2]: >1500 µg/mL
solubility ([2]; aqueous buffer, Solubility in PBS): 80 µg/mL
solubility ([2]; fassgf or other biorelevant, Solubility in SIF): < 5 µg/mL
solubility ([2]; simulated gastric fluid, Solubility in SGF): 80 µg/mL
solubility ([2]; water, Solubility in Water): > 800 µg/mL

O=C1c2cc(Cl)ccc2-[n+]2ccc3c([nH]c4ccccc43)c21 [Compound 7, 5-chloro-fascaplysin]
% Rh123 accumulation in LS-180 cells after 48 h (P-glycoprotein; [4]): 58.7 ± 7.8 %

Cn1c2ccccc2c2cc[n+](C)c(C(=O)c3ccccc3)c21 [Compound 8, 1-benzoyl-9,N-dimethyl beta-carbolinium iodide]
% Rh123 accumulation in LS-180 cells after 48 h (P-glycoprotein; [4]): 75.2 ± 9.1 %

Cn1c2ccccc2c2cc[n+](C)c(C(=O)c3ccccc3Cl)c21 [Compound 9, 1-(2-chloro-benzoyl)-9, N,N-dimethyl beta-carbolinium iodide]
% Rh123 accumulation in LS-180 cells after 48 h (P-glycoprotein; [4]): 71.4 ± 8.4 %

Cn1c2ccccc2c2cc[n+](C)c(C(=O)c3c[nH]c4ccccc34)c21 [Compound 10, 1-(3-indoloyl)-9,N-dimethyl beta-carbolinium iodide]
% Rh123 accumulation in LS-180 cells after 48 h (P-glycoprotein; [4]): 77.6 ± 7.6 %

Cn1c2ccccc2c2cc[n+](C)c(C(=O)c3ccccc3Br)c21 [Compound 11, 1-(2-bromo-benzoyl)-9,N-dimethyl beta-carbolinium iodide]
% Rh123 accumulation in LS-180 cells after 48 h (P-glycoprotein; [4]): 70.1 ± 6.7 %
EC50 (P-glycoprotein): 3 nM
Solubility in Water [2]: 800 µg/mL
solubility ([2]; water, Solubility in Water): > 800 µg/mL

Cn1c2ccccc2c2cc[n+](C)c(C(=O)c3ccc(C(F)(F)F)cc3)c21 [Compound 12, 1-(4-trifluoromethyl-benzoyl)-9,N-dimethyl beta-carbolinium iodide]
% Rh123 accumulation in LS-180 cells after 48 h (P-glycoprotein; [4]): 78.5 ± 5.8 %

Cn1c2ccccc2c2cc[n+](C)c(C(=O)c3ccccc3F)c21 [Compound 13, 1-(2-fluoro-benzoyl)-9,N-dimethyl beta-carbolinium iodide]
% Rh123 accumulation in LS-180 cells after 48 h (P-glycoprotein; [4]): 79.0 ± 6.0 %

CO[C@H]1/C=C/O[C@@]2(C)Oc3c(C)c(O)c4c(O)c(c(/C=N/N5CCN(C)CC5)c(O)c4c3C2=O)NC(=O)/C(C)=C\C=C\[C@H](C)[C@H](O)[C@@H](C)[C@@H](O)[C@@H](C)[C@H](OC(C)=O)[C@@H]1C [Rifampicin, reference compound]
% Rh123 accumulation in LS-180 cells after 48 h (P-glycoprotein; rifampicin 10 μM, reference Pgp inducer): 67.1 ± 4.6 %
